One data set deals with normal rats. The data set can be described thus: In vivo efficacy in a normal rat model after a single dose. Set-up: species or system rat (Sprague Dawley). The conditions noted are these: 3 mg/kg intravenous. As to the method:
SPF normal adult rats (Sprague Dawley, or SD) with weight of 250-350 g were fed with normal diet in an animal room for 7 days. Rats were randomized into groups of 6, half female and half male, and numbered. The day before the start of the experiment, 540 μL of blood was collected from each rat, and the plasma parathyroid hormone levels and the serum calcium ion concentration were measured as control values before administration. […] The plasma parathyroid hormone levels were measured using the Rat Intact PTH ELISA Kit (Quidel—Immunotopics, Cat. #: 60-2500; ELISA: Enzyme-linked immunosorbent assay) according to the kit instructions. […] The absorbance at 450 nm in each well was detected within 10 min after the addition of the ELISA terminating solution, while the absorbance at 620 nm was subtracted as background. A mixture of horseradish peroxidase ELISA substrate 150 μL and ELISA terminating solution 100 μL was used as the blank control in the absorbance detection. A standard curve according to the absorbance of the reference standard was plotted, and the actual plasma parathyroid hormone concentration was calculated according to the absorbance of other samples and the standard curve. […]

The test system of data set [1] is rat peritoneal mast cells. Nature of the data set: In vitro histamine release in rat peritoneal mast cells. Type of data set: cell-based. The conditions noted are these: final concentration 10 μM. The procedure: To evaluate the in vitro histamine release levels induced by some of the test example compounds, rat peritoneal mast cells were collected by lavaging rat peritoneum with a lavage buffer (cold HBSS+25 mM HEPES containing heparin 5 U/mL, pH 7.4). After collection, the cells were centrifuged, and the lavage buffer was discarded. The cells were resuspended and washed twice with a stimulation buffer (HBSS+25 mM HEPES+1 mM CaCl2), pH 7.4). The cells were plated at a density of 10^5 cell/well (200 μL/well) and incubated at 37° C. for 15 min with positive control compound 48/80 (final concentration: 4 μg/mL), test example compound (final concentration: 10 μM) or vehicle control. The cells were centrifuged, and cell supernatant was collected and tested for histamine concentration according to LDN Histamine ELISA kit (BAE-1000) instructions.

The test system of another data set is human red blood cells. Nature of the data set: Hemolytic effect on human red blood cells in vitro. The conditions noted are these: compound of formula (I) at 100 μg/mL; 37° C. for 1 h; absorbance at 540 nm; FIG. 1.

Where a SMILES comes first, the peptide text is derived from it. [ ]: non-standard residue; d: D form. The star is where a group is joined. Cys(free,S-linked) = N[C@@H](CS*)C(=O)O; dAbu = CC[C@@H](N)C(=O)O

Turning to `CC[C@@H](NC(=O)[C@@H](CCCNC(=N)N)NC(=O)[C@@H](CCCNC(=N)N)NC(=O)[C@@H](CSSC[C@H](N)C(=O)O)NC(C)=O)C(=O)N[C@H](CCCNC(=N)N)C(=O)N[C@H](C)C(=O)N[C@H](CCCNC(=N)N)C(N)=O` [Compound of formula (I), Ac-c(C)-r-r-(D-Abu)-r-a-r-NH2] (Ac-[dC](Cys(free,S-linked))[dR][dR][dAbu][dR][dA][dR]-NH2), the “serum calcium ion levels” value with normal rats (FIG. 3) is given as “correspondingly reduced”. The “plasma parathyroid hormone levels” value in the data set with normal rats (within 4 h, FIG. 2) is recorded as “completely reduced”. For the same molecule, in data set [1], the “histamine release levels in rat peritoneal mast cells in vitro relative to the etelcalcetide” value is reported as “greatly reduced”. The “Relative fold of histamine release in vitro” value in data set [1] (37° C. 15 min, relative to PBS buffer) was found to be 0.97.

Regarding polyethylene glycol octyl phenyl ether, the “hemolytic effect on red blood cells” value in the data set on human red blood cells is on record as “significant hemolytic effect”.

These data come from patent US20240269227A1, “CALCIUM-SENSING RECEPTOR AGONIST COMPOSITION AND APPLICATION THEREOF” (Beijing Tuo Jie Biopharmaceutical Co. Ltd., priority 2021, published 2024).
